Patent US6737383B1, “Herbicidal oxadiazolidines” (priority 1999, dated 2004)

Experiments:
blackgrass = experiment: Test B pre/postemergence blackgrass; type: in vivo, Alopecurus myosuroides; details: for Blackgrass plant response rating: scale of 0 to 10 where 0 is no effect and 10 is complete control
Procedure, shortened: (§1)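 Response is a visual 0-to-10 score relative to untreated plants, where 0 means no effect and 10 means complete control, taken twelve to sixteen days after application. Treatments went onto soil at planting and onto foliage of 1- to 4-leaf plants, using a surfactant-containing non-phytotoxic solvent.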

surinam grass = experiment: Test B pre/postemergence surinam grass; type: in vivo, Brachiaria decumbens; details: for B. signalgrass plant response rating: scale of 0 to 10 where 0 is no effect and 10 is complete control
Procedure, shortened: as §1

cocklebur = experiment: Test B pre/postemergence cocklebur; type: in vivo, Xanthium strumarium; details: for Cocklebur plant response rating: scale of 0 to 10 where 0 is no effect and 10 is complete control
Procedure, shortened: as §1

corn = experiment: Test B pre/postemergence corn; type: in vivo, Zea mays; details: for Corn plant response rating: scale of 0 to 10 where 0 is no effect and 10 is complete control
Procedure, shortened: as §1

crabgrass = experiment: Test B pre/postemergence crabgrass; type: in vivo, Digitaria sanguinalis; details: for Crabgrass plant response rating: scale of 0 to 10 where 0 is no effect and 10 is complete control
Procedure, shortened: as §1

giant foxtail = experiment: Test B pre/postemergence giant foxtail; type: in vivo, Setaria faberii; details: for Giant foxtail plant response rating: scale of 0 to 10 where 0 is no effect and 10 is complete control
Procedure, shortened: as §1

morningglory = experiment: Test B pre/postemergence morningglory; type: in vivo, Ipomoea hederacea; details: for Morningglory plant response rating: scale of 0 to 10 where 0 is no effect and 10 is complete control
Procedure, shortened: as §1

pigweed = experiment: Test B pre/postemergence pigweed; type: in vivo, Amaranthus retroflexus; details: for Redroot pigweed plant response rating: scale of 0 to 10 where 0 is no effect and 10 is complete control
Procedure, shortened: as §1

rape = experiment: Test B pre/postemergence rape; type: in vivo, Brassica napus; details: for Rape plant response rating: scale of 0 to 10 where 0 is no effect and 10 is complete control
Procedure, shortened: as §1

soybean = experiment: Test B pre/postemergence soybean; type: in vivo, Glycine max; details: for Soybean plant response rating: scale of 0 to 10 where 0 is no effect and 10 is complete control
Procedure, shortened: as §1

velvetleaf = experiment: Test B pre/postemergence velvetleaf; type: in vivo, Abutilon theophrasti; details: for Velvetleaf plant response rating: scale of 0 to 10 where 0 is no effect and 10 is complete control
Procedure, shortened: as §1

wheat = experiment: Test B pre/postemergence wheat; type: in vivo, Triticum aestivum; details: for Wheat plant response rating: scale of 0 to 10 where 0 is no effect and 10 is complete control
Procedure, shortened: as §1

wild oat = experiment: Test B pre/postemergence wild oat; type: in vivo, Avena fatua; details: for Wild oats plant response rating: scale of 0 to 10 where 0 is no effect and 10 is complete control
Procedure, shortened: as §1

purple nutsedge = experiment: Test B pre/postemergence purple nutsedge; type: in vivo, Cyperus rotundus; details: for Nutsedge plant response rating: scale of 0 to 10 where 0 is no effect and 10 is complete control
Procedure, shortened: as §1

[1] = Postemergence, Rate 125 g/ha, scale 0 to 10, 0 is no effect, 10 is complete control
[2] = Postemergence, Rate 250 g/ha, scale 0 to 10, 0 is no effect, 10 is complete control
[3] = Preemergence, Rate 62 g/ha, scale 0 to 10 (0 no effect, 10 complete control)
[4] = Rate 500 g/ha, Postemergence, scale 0 to 10, 0 no effect, 10 complete control

`Cc1nnsc1Cn1c(=O)on(C(=O)N(c2ccc(F)cc2)C(C)C)c1=O` [Compound 380] was tested, and the “Plant response rating, Blackgrass” value (blackgrass; [1]) was 0, the “Plant response rating, Blackgrass” value (blackgrass; [2]) was 0 and the “Plant response rating, Blackgrass” value (blackgrass; [3]) was 0. For the same molecule, the “Blackgrass plant response rating (0 to 10 scale)” value (blackgrass; Preemergence, Rate 125 g/ha) was 0, the “Blackgrass plant response rating” value (blackgrass; Preemergence, Rate 250 g/ha) was 0 and the “Blackgrass plant response rating” value (blackgrass; Preemergence, Rate 500 g/ha) was 2. The “Blackgrass plant response rating” value (blackgrass; Rate 62 g/ha, Postemergence) was 0, the “Plant response rating, Blackgrass” value (blackgrass; [4]) was 0 and the “Plant response rating, B. signalgrass” value (surinam grass; [1]) was 0. For the same molecule, the “Plant response rating, B. signalgrass” value (surinam grass; [2]) was 0, the “Plant response rating, B. signalgrass” value (surinam grass; [3]) was 0 and the “B. signalgrass plant response rating (0 to 10 scale, 0 is no effect, 10 is complete control)” value (surinam grass; Preemergence, Rate 125 g/ha) was 0. For the same molecule, the “B. signalgrass plant response rating” value (surinam grass; Preemergence, Rate 250 g/ha) was 0, the “B. signalgrass plant response rating” value (surinam grass; Preemergence, Rate 500 g/ha) was 0 and the “B. signalgrass plant response rating” value (surinam grass; Rate 62 g/ha, Postemergence) was 0. The “Plant response rating, B. signalgrass” value (surinam grass; [4]) was 0, the “Plant response rating, Cocklebur” value (cocklebur; [1]) was 0 and the “Plant response rating, Cocklebur” value (cocklebur; [2]) was 0. The “Plant response rating, Cocklebur” value (cocklebur; [3]) was 0, the “Cocklebur plant response rating (0 to 10 scale)” value (cocklebur; Preemergence, Rate 125 g/ha) was 0 and the “Cocklebur plant response rating” value (cocklebur; Preemergence, Rate 250 g/ha) was 0. For the same molecule, the “Cocklebur plant response rating” value (cocklebur; Rate 62 g/ha, Postemergence) was 0, the “Plant response rating, Cocklebur” value (cocklebur; [4]) was 6 and the “Plant response rating, Corn” value (corn; [1]) was 0. The “Plant response rating, Corn” value (corn; [2]) was 0, the “Plant response rating, Corn” value (corn; [3]) was 0 and the “Corn plant response rating (0 to 10 scale)” value (corn; Preemergence, Rate 125 g/ha) was 0. The “Corn plant response rating” value (corn; Preemergence, Rate 250 g/ha) was 0, the “Corn plant response rating” value (corn; Preemergence, Rate 500 g/ha) was 0 and the “Corn plant response rating” value (corn; Rate 62 g/ha, Postemergence) was 0. The “Plant response rating, Corn” value (corn; [4]) was 0, the “Plant response rating, Crabgrass” value (crabgrass; [1]) was 1 and the “Plant response rating, Crabgrass” value (crabgrass; [2]) was 2. For the same molecule, the “Plant response rating, Crabgrass” value (crabgrass; [3]) was 1, the “Crabgrass plant response rating (0 to 10 scale)” value (crabgrass; Preemergence, Rate 125 g/ha) was 7 and the “Crabgrass plant response rating” value (crabgrass; Preemergence, Rate 250 g/ha) was 7. The “Crabgrass plant response rating” value (crabgrass; Preemergence, Rate 500 g/ha) was 9, the “Crabgrass plant response rating” value (crabgrass; Rate 62 g/ha, Postemergence) was 0 and the “Plant response rating, Crabgrass” value (crabgrass; [4]) was 7. For the same molecule, the “Plant response rating, Giant foxtail” value (giant foxtail; [1]) was 2, the “Plant response rating, Giant foxtail” value (giant foxtail; [2]) was 9 and the “Plant response rating, Giant foxtail” value (giant foxtail; [3]) was 2. For the same molecule, the “Giant foxtail plant response rating (0 to 10 scale)” value (giant foxtail; Preemergence, Rate 125 g/ha) was 8, the “Giant foxtail plant response rating” value (giant foxtail; Preemergence, Rate 250 g/ha) was 9 and the “Giant foxtail plant response rating” value (giant foxtail; Preemergence, Rate 500 g/ha) was 10. The “Giant foxtail plant response rating” value (giant foxtail; Rate 62 g/ha, Postemergence) was 1, the “Plant response rating, Giant foxtail” value (giant foxtail; [4]) was 9 and the “Plant response rating, Morningglory” value (morningglory; [1]) was 5. For the same molecule, the “Plant response rating, Morningglory” value (morningglory; [2]) was 5, the “Plant response rating, Morningglory” value (morningglory; [3]) was 0 and the “Morningglory plant response rating (0 to 10 scale)” value (morningglory; Preemergence, Rate 125 g/ha) was 0. For the same molecule, the “Morningglory plant response rating” value (morningglory; Preemergence, Rate 250 g/ha) was 0, the “Morningglory plant response rating” value (morningglory; Preemergence, Rate 500 g/ha) was 0 and the “Morningglory plant response rating” value (morningglory; Rate 62 g/ha, Postemergence) was 5. The “Plant response rating, Morningglory” value (morningglory; [4]) was 10, the “Plant response rating, Redroot pigweed” value (pigweed; [1]) was 0 and the “Plant response rating, Redroot pigweed” value (pigweed; [2]) was 0. The “Plant response rating, Redroot pigweed” value (pigweed; [3]) was 0, the “Redroot pigweed plant response rating (0 to 10 scale)” value (pigweed; Preemergence, Rate 125 g/ha) was 3 and the “Redroot pigweed plant response rating” value (pigweed; Preemergence, Rate 250 g/ha) was 3. For the same molecule, the “Redroot pigweed plant response rating” value (pigweed; Preemergence, Rate 500 g/ha) was 6, the “Redroot pigweed plant response rating” value (pigweed; Rate 62 g/ha, Postemergence) was 0 and the “Plant response rating, Redroot pigweed” value (pigweed; [4]) was 5. For the same molecule, the “Plant response rating, Rape” value (rape; [1]) was 0, the “Plant response rating, Rape” value (rape; [2]) was 0 and the “Plant response rating, Rape” value (rape; [3]) was 0. For the same molecule, the “Rape plant response rating (0 to 10 scale)” value (rape; Preemergence, Rate 125 g/ha) was 0, the “Rape plant response rating” value (rape; Preemergence, Rate 250 g/ha) was 0 and the “Rape plant response rating” value (rape; Preemergence, Rate 500 g/ha) was 0. For the same molecule, the “Rape plant response rating” value (rape; Rate 62 g/ha, Postemergence) was 0, the “Plant response rating, Rape” value (rape; [4]) was 0 and the “Plant response rating, Soybean” value (soybean; [1]) was 1. The “Plant response rating, Soybean” value (soybean; [2]) was 1, the “Plant response rating, Soybean” value (soybean; [3]) was 0 and the “Soybean plant response rating (0 to 10 scale)” value (soybean; Preemergence, Rate 125 g/ha) was 0. For the same molecule, the “Soybean plant response rating” value (soybean; Preemergence, Rate 250 g/ha) was 0, the “Soybean plant response rating” value (soybean; Preemergence, Rate 500 g/ha) was 0 and the “Soybean plant response rating” value (soybean; Rate 62 g/ha, Postemergence) was 0. For the same molecule, the “Plant response rating, Soybean” value (soybean; [4]) was 1, the “Plant response rating, Velvetleaf” value (velvetleaf; [1]) was 0 and the “Plant response rating, Velvetleaf” value (velvetleaf; [2]) was 0. For the same molecule, the “Plant response rating, Velvetleaf” value (velvetleaf; [3]) was 0, the “Velvetleaf plant response rating (0 to 10 scale)” value (velvetleaf; Preemergence, Rate 125 g/ha) was 0 and the “Velvetleaf plant response rating” value (velvetleaf; Preemergence, Rate 250 g/ha) was 0. The “Velvetleaf plant response rating” value (velvetleaf; Preemergence, Rate 500 g/ha) was 0, the “Velvetleaf plant response rating” value (velvetleaf; Rate 62 g/ha, Postemergence) was 0 and the “Plant response rating, Velvetleaf” value (velvetleaf; [4]) was 3. For the same molecule, the “Plant response rating, Wheat” value (wheat; [1]) was 0, the “Plant response rating, Wheat” value (wheat; [2]) was 0 and the “Plant response rating, Wheat” value (wheat; [3]) was 0. For the same molecule, the “Wheat plant response rating (0 to 10 scale)” value (wheat; Preemergence, Rate 125 g/ha) was 0, the “Wheat plant response rating” value (wheat; Preemergence, Rate 250 g/ha) was 0 and the “Wheat plant response rating” value (wheat; Preemergence, Rate 500 g/ha) was 0. The “Wheat plant response rating” value (wheat; Rate 62 g/ha, Postemergence) was 0, the “Plant response rating, Wheat” value (wheat; [4]) was 0 and the “Plant response rating, Wild oats” value (wild oat; [1]) was 0. For the same molecule, the “Plant response rating, Wild oats” value (wild oat; [2]) was 0, the “Plant response rating, Wild oats” value (wild oat; [3]) was 0 and the “Wild oats plant response rating (0 to 10 scale)” value (wild oat; Preemergence, Rate 125 g/ha) was 0. For the same molecule, the “Wild oats plant response rating” value (wild oat; Preemergence, Rate 250 g/ha) was 0, the “Wild oats plant response rating” value (wild oat; Preemergence, Rate 500 g/ha) was 4 and the “Wild oats plant response rating” value (wild oat; Rate 62 g/ha, Postemergence) was 0. The “Plant response rating, Wild oats” value (wild oat; [4]) was 0, the “Plant response rating, Nutsedge” value (purple nutsedge; [1]) was 0 and the “Plant response rating, Nutsedge” value (purple nutsedge; [2]) was 0. The “Plant response rating, Nutsedge” value (purple nutsedge; [3]) was 0, the “Nutsedge plant response rating (0 to 10 scale)” value (purple nutsedge; Preemergence, Rate 125 g/ha) was 0 and the “Nutsedge plant response rating” value (purple nutsedge; Preemergence, Rate 250 g/ha) was 0. The “Nutsedge plant response rating” value (purple nutsedge; Preemergence, Rate 500 g/ha) was 0, the “Nutsedge plant response rating” value (purple nutsedge; Rate 62 g/ha, Postemergence) was 0 and the “Plant response rating, Nutsedge” value (purple nutsedge; [4]) was 0.
